Test [1] deals with urease in New York soil (Cazenovia silt loam, pH 7.0). Put plainly: Urease Inhibition Efficacy Test in New York soil (Cazenovia silt loam). The note with it: 40 micrograms test compound per gram soil; 42.8 mg urea per 20 g air-dry soil; incubated at 25° C. for three days; remaining urea; run in triplicate. Type of test: biochemical. As for the experimental part: (§1) Efficacy tests were conducted to evaluate the efficacy of certain representative aminophenol compounds as urease inhibitors. The inhibition tests were run in New York soil (Cazenovia silt loam, pH 7.0) or in Wisconsin soil (Plano silt loam, pH 5.4)
(§2) Evaluations (run in triplicate) consisted of applying 800 micrograms of the test compound in 5 ml of water and 42.8 mg of urea in 1 mL of water to 20 g of air-dry soil in a glass bottle. The bottle was capped with perforated aluminum foil and incubated at 25° C.C for three days prior to extraction with 100 mL of a 2M KCl solution containing 0.5 mg of phenylmercuric acetate. The extracts were then analyzed for remaining urea using an autoanalyzer. Percent inhibition was calculated as % Inhibition=[1-(A-B/A-C)]×100 where A is urea recovered from unincubated sample (urea added to soil and immediately extracted); B is urea recovered from inhibited sample; and C is urea recovered from the control (uninhibited sample).

For test [2], the system named is urease in Wisconsin soil (Plano silt loam, pH 5.4). Put plainly: Urease Inhibition Efficacy Test in Wisconsin soil (Plano silt loam). The settings on record: 40 micrograms test compound per gram soil; 42.8 mg urea per 20 g air-dry soil; incubated at 25° C. for three days; remaining urea; run in triplicate. It counts as biochemical. As for the experimental part:
as §1, §2

Structures can show the parent of a compound that is named as a salt.

For the compound `O=C(O)CNc1ccc(O)cc1` [N--(4-Hydroxyphenyl)glycine], the “% Inhibition 40 micrograms per gram soil Cazenovia pH 7.0” value in test [1] turned out to be 82%. The “% Inhibition 40 micrograms per gram soil Wisconsin pH 5.4” value in test [2] is 61%.
Regarding `Nc1ccc(O)cc1` [4-aminophenol], the “% Inhibition 40 micrograms per gram soil Cazenovia pH 7.0” value in test [1] is listed as 46%.
2,6-Dichloroiminophenol, sodium salt: the “% Inhibition 40 micrograms per gram soil Cazenovia pH 7.0” value in test [1] came to 69%.
Take `O=C(Nc1ccc(O)cc1)c1ccccc1` [4'-Hydroxybenzanilide]: the “% Inhibition 40 micrograms per gram soil Cazenovia pH 7.0” value in test [1] amounted to 50%. Further, the “% Inhibition 40 micrograms per gram soil Wisconsin pH 5.4” value in test [2] was 14%.
Take `Nc1ccccc1O` [2-aminophenol]: the “% Inhibition 40 micrograms per gram soil Cazenovia pH 7.0” value in test [1] came to 8%.
Regarding `CN(C)c1ccc(O)cc1` [4-(N,N--dimethylamino)-phenol hydrochloride], in test [1], the “% Inhibition 40 micrograms per gram soil Cazenovia pH 7.0” value is reported as 77%. Further, the “% Inhibition 40 micrograms per gram soil Wisconsin pH 5.4” value in test [2] came to 49%.
For `Oc1ccc(Nc2ccccc2)cc1` [4-(N--phenyl)aminophenol], in that order: 69% and 53%.
As to `CNc1ccc(O)cc1` [4-(N--methylamino)phenol sulfate], in test [1], the “% Inhibition 40 micrograms per gram soil Cazenovia pH 7.0” value was found to be 82%. Moreover, the “% Inhibition 40 micrograms per gram soil Wisconsin pH 5.4” value in test [2] stood at 55%.

For the origin of these results see patent US4517005A, “Aminophenol urease inhibitors and urease inhibited urea based fertilizer compositions” (Allied Corporation, priority 1983, dated 1985).
